Assay results taken from patent US12312332B2 (Merck Sharp & Dohme LLC., priority 2019, dated 2025).

Molecular target: T1, human OX2R (Homo sapiens, UniProt O43614)
T1 construct: expressed in transfected cells; host or cells: Chinese hamster ovary (CHO) cells, kept under G418 selection
T1 sequence (O43614 1-444): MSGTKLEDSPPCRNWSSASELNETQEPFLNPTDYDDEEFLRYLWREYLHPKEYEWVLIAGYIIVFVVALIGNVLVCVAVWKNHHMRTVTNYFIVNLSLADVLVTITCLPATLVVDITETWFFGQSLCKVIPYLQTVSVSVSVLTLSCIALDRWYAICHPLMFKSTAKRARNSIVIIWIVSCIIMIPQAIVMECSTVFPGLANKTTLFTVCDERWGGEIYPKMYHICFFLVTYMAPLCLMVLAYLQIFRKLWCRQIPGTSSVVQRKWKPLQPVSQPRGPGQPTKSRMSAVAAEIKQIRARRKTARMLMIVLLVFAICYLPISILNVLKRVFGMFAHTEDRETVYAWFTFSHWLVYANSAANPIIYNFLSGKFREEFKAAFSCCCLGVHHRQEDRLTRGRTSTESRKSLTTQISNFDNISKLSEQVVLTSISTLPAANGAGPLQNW
Assay: IPOne (IP-One) orexin receptor agonist assay in CHO cells expressing human OX2R
Format: cell-based
Conditions: for EC50: CHO cells expressing human OX2R, IP-One detection, 2 hours incubation, four parameter logistic fit, read-out: OX2R Potency, EC50; for % max agonist effect (Emax): human OX2R, percentage of sample raw value/mean max effect (reference compound at 1 uM with 100% activity)

Row | SMILES | EC50 | % max agonist effect (Emax)
1 | COc1cnc(N2CC[C@H](NS(C)(=O)=O)[C@@H]2CO[C@H]2CC[C@@H](c3ccccc3)CC2)cc1O [Example 119, N-((2R,3S)-1-(4-hydroxy-5-methoxypyridin-2-yl)-2-((((CIS)-4-phenylcyclohexyl)oxy)methyl)pyrrolidin-3-yl)methanesulfonamide] | 35.8 nM | 101.8%
2 | CS(=O)(=O)N[C@H]1CCN(c2cnc3ccoc3c2)[C@H]1CO[C@H]1CC[C@@H](c2ccccc2)CC1 [Example 91, N-((2R,3S)-1-(furo[3,2-b]pyridin-6-yl)-2-((((CIS)-4-phenylcyclohexyl)oxy)methyl)pyrrolidin-3-yl)methanesulfonamide] | 803 nM | 99.0%
3 | Cc1scnc1N1CC[C@H](NS(C)(=O)=O)[C@@H]1CO[C@H]1CC[C@@H](c2ccccc2)CC1 [Example 84, N-((2R,3S)-1-(5-methylthiazol-4-yl)-2-((((CIS)-4-phenylcyclohexyl)oxy)methyl)pyrrolidin-3-yl)methanesulfonamide] | 109 nM | 100.7%

The next lines start with the values.

Row | EC50 | % max agonist effect (Emax) | SMILES
4 | 0.58 nM | 100.7% | CS(=O)(=O)N[C@H]1CCN(c2nccc(O)c2F)[C@H]1CO[C@H]1CC[C@@H](c2ccccc2)CC1 [Example 117, N-((2R,3S)-1-(3-fluoro-4-hydroxypyridin-2-yl)-2-((((CIS)-4-phenylcyclohexyl)oxy)methyl)pyrrolidin-3-yl)methanesulfonamide]
5 | 662 nM | 97.4% | CN(C)c1ccnc(N2CC[C@H](NS(C)(=O)=O)[C@@H]2CO[C@H]2CC[C@@H](c3ccccc3)CC2)c1 [Example 74, N-((2R,3S)-1-(4-(dimethylamino)pyridin-2-yl)-2-((((CIS)-4-phenylcyclohexyl)oxy)methyl)pyrrolidin-3 - yl)methanesulfonamide]
6 | 16.9 nM | 101.1% | CS(=O)(=O)N[C@H]1CCN(c2cnccc2C(F)F)[C@H]1CO[C@H]1CC[C@@H](c2ccccc2)CC1 [Example 121, N-((2R,3S)-1-(4-(difluoromethyl)pyridin-3-yl)-2-((((CIS)-4-phenylcyclohexyl)oxy)methyl)pyrrolidin-3-yl)methanesulfonamide]
7 | 330 nM | 100.6% | Cc1cncc(N2CC[C@H](NS(C)(=O)=O)[C@@H]2CO[C@H]2CC[C@@H](c3ccccc3)CC2)n1 [Example 62, N-((2R,3S)-1-(6-methylpyrazin-2-yl)-2-((((CIS)-4-phenylcyclohexyl)oxy)methyl)pyrrolidin-3-yl)methanesulfonamide]
